One molecule from PMC3541985, “Improvement of Catalytic Efficiency, Thermo-stability and Dye Decolorization Capability of Pleurotus ostreatus IBL-02 laccase by Hydrophobic Sol Gel Entrapment” (Chemistry Central Journal, 2012) can be followed below.

For the test, the system named is T1, P. ostreatus IBL-02 laccase.
T1 construct: gene pox2
The conditions noted are these: free (not immobilised) enzyme; ABTS varied 0.1-1 mM, so the printed unit mM is doubtful; standard assay malonate buffer pH 4.5, 25°C.

With `CCn1c(=NN=c2sc3cc(S(=O)(=O)O)ccc3n2CC)sc2cc(S(=O)(=O)O)ccc21` [ABTS, 2, 2′-azino-bis-3-ethylbenzothiazoline-6-sulfonic acid], the Michaelis-Menten constant (Km) amounted to 33 mM.
